# Measurements as given in patent US6767911B2, “Fungicidal active compound combinations” (priority 1994, dated 2004).
# Experiments:
# Botrytis cinerea = assay: Botrytis test (beans)/protective; type: in vivo; conditions: protective, 3 days after inoculation
# Description: Botrytis Test (Beans)/Protective
# To produce a suitable preparation of active compound, either commercially available formulations of active compound (individual active compound or active compound combinations) or one part by weight of active compound is mixed with 4.7 parts by weight of solvent (acetone) and 0.3 parts by weight of emulsifier (alkyl-aryl polyglycol ether), and the mixture is diluted with water to the desired concentration.
# To test for protective activity, young plants are sprayed with the preparation of active compound until dripping wet. After the spray coating has dried on, 2 small pieces of agar covered with Botrytis cinerea are placed on each leaf. The inoculated plants are placed in a darkened humid chamber at 20° C. 3 days after the inoculation, the size of the infected spots on the leaves is evaluated.
# Active compounds, active compound concentrations and test results can be seen from the tables which follow.
# Penicillium custosum = assay: Agar plate test with Penicillium custosum; type: cell-based; conditions: 100 ppm, inhibition of growth after 6 days
# Description: Agar Plate Test With Penicillium custosum
# 39 parts by weight of potato dextrose agar
# 20 parts by weight of agar
# are dissolved in 1,000 ml of distilled water and the solution is kept in an autoclave at 121° C. for 20 minutes.
# 50 parts by weight of acetone
# 950 parts by weight of water
# Ratio of the amount of solvent to nutrient medium: 1:100
# To produce a suitable preparation of active compound, 1 part by weight of active compound is mixed with the stated amount of solvent.
# The concentrate is thoroughly mixed, in the stated ratio, with the liquid nutrient medium, and the mixture is poured into Petri dishes.
# When the nutrient medium has cooled and solidified, the plates are inoculated with the following microorganisms and are incubated at about 21° C.: Penicillium custosum.
# Evaluation is carried out after 6 days, the inhibition of growth being used as a measure of the action of the products.
# [1] = test system: Erysiphe graminis f.sp. tritici; assay: Erysiphe test (wheat)/protective; type: in vivo; conditions: protective, 125 g/ha, 7 days after inoculation
# Description: Erysiphe Test (Wheat)/Protective
# (§1) To produce a suitable preparation of active compound, commercially available formulations of active compound are diluted with water to the desired concentration.
# (§2) To test for protective activity, young plants are sprayed with the preparation of active compound at the application rate shown.
# After the spray coating has dried on, the plants are dusted with spores of Erysiphe graminis f.sp. tritici.
# (§3) The plants are placed in a greenhouse at a temperature of about 20° C. and a relative atmospheric humidity of about 80%, in order to promote the development of mildew pustules.
# Evaluation is carried out 7 days' after the inoculation.
# [2] = test system: Erysiphe graminis f.sp. hordei; assay: Erysiphe test (barley)/protective; type: in vivo; conditions: protective, 125 g/ha, 7 days after inoculation
# Description: Erysiphe Test (Barley)/Protective
# as §1, §2
# After the spray coating has dried on, the plants are dusted with spores of Erysiphe graminis f.sp. hordei.
# as §3
# (§4) Evaluation is carried out 7 days after the inoculation.
# Drechslera graminea = Drechslera graminea test (barley)/seed treatment (syn. Helminthosporium gramineum); type: in vivo; conditions: approx. 3 weeks after sowing
# Description: Drechslera graminea Test (Barley)/Seed Treatment (syn. Helminthosporium gramineum)
# (§5) The active compounds are used as a powder for dry seed treatment. They are prepared by extending the active compound in question with rock meal to give a finely pulverulent mixture which guarantees uniform distribution on the seed surface.
# (§6) To carry out the seed treatment, the infected seed and the seed-dressing product are shaken for 3 minutes in a sealed glass flask.
# The seed, embedded in screened, moist standard soil in sealed Petri dishes, is exposed to a temperature of 4° C. for 10 days in a refrigerator. This triggers germination of the barley and, if appropriate, of the fungal spores. 2×50 pregerminated barley kernels are subsequently sown in standard soil at a depth of 3 cm and grown in a greenhouse at a temperature of approximately 18° in seed boxes which are exposed to the light for 15 hours per day.
# Approximately 3 weeks after sowing, the plants are evaluated for symptoms of barley leaf stripe.
# Fusarium nivale = Fusarium nivale test (wheat)/seed treatment; type: in vivo; conditions: approx. 3 weeks after sowing
# Description: Fusarium nivale Test (Wheat)/Seed Treatment
# as §5, §6
# 2×100 wheat kernels are sown in standard soil at a depth of 1 cm and grown in the greenhouse at a temperature of approximately 10° C. and a relative atmospheric humidity of approximately 95% in seed boxes which are exposed to the light for 15 hours per day.
# Approximately 3 weeks after sowing, the plants are evaluated for snow blight symptoms.
# [3] = test system: Erysiphe graminis f.sp. hordei; assay: Erysiphe test (barley)/curative; type: in vivo; conditions: curative, 7 days after inoculation
# Description: Erysiphe Test (Barley)/Curative
# as §1
# To test for curative activity, young plants are dusted with spores of Erysiphe graminis f.sp. hordei. 48 hours after the inoculation, the plants are sprayed with the preparation of active compound at the application rate shown.
# as §3, §4
# The expected degree of effectiveness in % of the untreated control was calculated using the equation [formula]
# in which x and y denote, respectively, the degree of effectiveness—expressed in % of the untreated control—obtained by the two preparations when used separately. If the actually observed degree of effectiveness of the active compound combination exceeds the value calculated for the expected degree of effectiveness (E) using the abovementioned formula, then there is a superadditive, i.e. synergistic, effect.
# Leptosphaeria nodorum = Leptosphaeria nodorum test (wheat)/protective; type: in vivo; conditions: protective, 125 g/ha, 10 days after inoculation
# Description: Leptosphaeria nodorum Test (Wheat)/Protective
# as §1, §2
# After the spray coating has dried on, the plants are sprayed with a spore suspension of Leptosphaeria nodorum. The plants remain for 48 hours in an incubation cabin at 20° C. and 100% relative atmospheric humidity.
# The plants are placed in a greenhouse at a temperature of about 15° C. and a relative atmospheric humidity of about 80%.
# Evaluation is effected 10 days after the inoculation.
structure (smiles),measurement,setting,value
CC1(C(=O)Nc2ccc(O)c(Cl)c2Cl)CCCCC1 [(I)],Degree of effectiveness in % of the untreated control,Botrytis cinerea; 5 ppm,29%
same,Degree of effectiveness in % of the untreated control,Penicillium custosum,24%
same,Degree of effectiveness in % of the untreated control,[1],25%
same,Degree of effectiveness in % of the untreated control,[2],18%
same,Degree of effectiveness in % of the untreated control,Drechslera graminea; 50 mg/kg of seed,41%
same,Degree of effectiveness in % of the untreated control,Drechslera graminea; 100 mg/kg of seed,43%
same,Degree of effectiveness in % of the untreated control,Fusarium nivale; 25 mg/kg of seed,0%
same,Degree of effectiveness in % of the untreated control,Fusarium nivale; 100 mg/kg of seed,22%
same,Degree of effectiveness in % of the untreated control,[3]; 20 g/ha,25%
same,Degree of effectiveness in % of the untreated control,Leptosphaeria nodorum,57%
"CCCN(CC)CC1COC2(CCC(C(C)(C)C)CC2)O1 (stereo not drawn) [(L), 8-(,1,1-dimethylethyl)-N-ethyl-N-propyl-1,4-dioxaspiro[4,5]decane-2-methaneamine]",Degree of effectiveness in % of the untreated control,Botrytis cinerea; 200 ppm,0%
same,Degree of effectiveness in % of the untreated control,[3]; 10 g/ha,66%
"CNC(=O)/C(=N/OC)c1ccccc1Oc1ccccc1 [(M), (E)-α-(methoxyimino)-N-methyl-2-phenoxy-benzacetamide]",Degree of effectiveness in % of the untreated control,Botrytis cinerea; 25 ppm,28%
"CNC(=O)/C(=N/OC)c1ccccc1COc1cc(C)ccc1C [(N), (E)-α-(methoxyimono)-N-methyl-2-(2,5-dimethyl-phenoxy-methyl)-benzacetamide]",Degree of effectiveness in % of the untreated control,Botrytis cinerea; 12.5 ppm,64%
"Cc1ccc(C(C)NC(=O)C(NC(=O)OC(C)C)C(C)C)cc1 (stereo not drawn) [(O), 1-methylethyl [2-methyl-1-[[[1-(4-methylphenyl)ethyl]amino]carbonyl]propyl]-carbamate]",Degree of effectiveness in % of the untreated control,Botrytis cinerea; 200 ppm,19%
"Cc1cc(C2CC2)nc(Nc2ccccc2)n1 [Ciprodinyl, cyprodinyl]",Degree of effectiveness in % of the untreated control,Botrytis cinerea; 5 ppm,5%
"Fc1ccc(C2(Cn3cncn3)OC2c2ccccc2Cl)cc1 (stereo not drawn) [Epoxiconazole, epoxiconazole]",Degree of effectiveness in % of the untreated control,Leptosphaeria nodorum,57%
"CCCCc1c(C)nc(NCC)nc1O [Ethirimol, ethirimol]",Degree of effectiveness in % of the untreated control,Drechslera graminea; 100 mg/kg of seed,8%
"N#Cc1c[nH]cc1-c1cccc(Cl)c1Cl [Fenpiclonil, fenpiclonil]",Degree of effectiveness in % of the untreated control,Drechslera graminea; 50 mg/kg of seed,41%
same,Degree of effectiveness in % of the untreated control,Fusarium nivale; 25 mg/kg of seed,6%
"CC(Cc1ccc(C(C)(C)C)cc1)CN1CCCCC1 (stereo not drawn) [Fenpropidin, fenpropidin]",Degree of effectiveness in % of the untreated control,Botrytis cinerea; 50 ppm,0%
N#Cc1c[nH]cc1-c1cccc2c1OC(F)(F)O2 [Fludioxonil],Degree of effectiveness in % of the untreated control,Botrytis cinerea; 1 ppm,5%
"O=c1c2cc(F)ccc2nc(-n2cncn2)n1-c1ccc(Cl)cc1Cl [Fluquinconazole, fluquinconazole]",Degree of effectiveness in % of the untreated control,Botrytis cinerea; 25 ppm,29%
CC(=O)O.CC(=O)O.CC(=O)O.NC(N)=NCCCCCCCCNCCCCCCCCN=C(N)N [Iminoctadine triacetate],Degree of effectiveness in % of the untreated control,[2],27%
"Cc1ccc2nc3sc(=O)sc3nc2c1 [Quinomethionate, quinomethionate]",Degree of effectiveness in % of the untreated control,Botrytis cinerea; 50 ppm,0%
same,Degree of effectiveness in % of the untreated control,[1],9%
O=S([O-])CO.[Na+] [Sodium hydroxymethyl sulphinate],Degree of effectiveness in % of the untreated control,Botrytis cinerea; 200 ppm,32%
